Experimental data taken from patent US20130189354A1, “Novel Pharmaceutical Compositions for Treating Chronic Pain and Pain Associated with Neuropathy” (priority 2010, published 2013).
Structures can show the parent of a compound that is named as a salt. Where two headings read alike, the source gives them in different places.

How the values were obtained:
[1] = cited from earlier work
μ-opiate receptor = μ-opiate receptor (Homo sapiens, UniProt P35372); details: cited from earlier work
pain [2] = details: single oral dose of tramadol 100 mg; cited from earlier work
[3] = tested on: diabetic neuropathy and fibromyalgia; experiment: Pain relief in patients with diabetic neuropathy and fibromyalgia; format: in vivo, human; details: 400 mg of tramadol per day
From the text: In certain preferred embodiments, the invention is directed in part to synergistic combinations of dextromethorphan or other NMDA receptor antagonist in an amount sufficient to render a therapeutic effect together with an anticonvulsant and/or a tricyclic anti-depressant and tramadol or its analog, such that an analgesic effect is attained which is at least about 5 (and preferably at least about 10) times greater than that obtained with the dose of tramadol or its analog alone. This is exemplified by the apparent fact that patients with diabetic neuropathy and fibromyalgia, who could not get even 30-40% reduction in pain even with the administration of 400 mg of tramadol per day, can have shown 90-100% pain relief with the inventive composition containing 35 mg of tramadol, 45 mg of dextromethorphan and 90 mg of gabapentin over a period of 12-16 hours.
(§1) The synergistic effect of the combination can further be appreciated using Table 1.

[4] = tested on: α2δ subunit of voltage-gated calcium channels; details: cited from earlier work
[5] = tested on: neuropathy-induced allodynia; details: in vivo; cited from earlier work
Diabetic Neuropathy [6] = details: literature values; Tramadol Hydrochloride 400 mg/day (Sindrup 1999), Gabapentin 3600 mg/day (Marchettini 2004); cited from earlier work
Fibromyalgia [7] = details: literature values; Tramadol Hydrochloride 400 mg/day (Biasi 1998; Russell 2000), Gabapentin 3600 mg/day (Lesley 2007); cited from earlier work
[8] = patients with epilepsy; cited from earlier work
Fibromyalgia [9] = experiment: Pain relief in fibromyalgia patients (Table 1); format: in vivo, human; details: individual components at the doses present in TLI-0326 (40.4, 100, 200 mg/day); would have very little effect
From the text: as §1

postherpetic neuralgia [10] = details: cited from earlier work
Diabetic Neuropathy [11] = experiment: Pain relief in diabetic neuropathy patients (Table 1); format: in vivo, human; details: individual components at the doses present in TLI-0326 (40.4, 100, 200 mg/day); would have very little effect
From the text: as §1

pain [12] = details: relative to tramadol; cited from earlier work
central poststroke pain = details: 10 of 15 patients; cited from earlier work
postherpetic neuralgia [13] = details: oral; cited from earlier work
[14] = tested on: painful diabetic neuropathy; details: oral; cited from earlier work
[15] = rats, i.v. administration; cited from earlier work
[16] = tested on: a or β adrenergic, muscarinic, histaminergic, and dopaminergic receptors; details: cited from earlier work
[17] = cited from earlier work; remark: listed apart in the source
uptake of dopamine = details: cited from earlier work
[18] = fibromyalgia trials, cited from earlier work
[19] = diabetic peripheral neuropathy trials; cited from earlier work
post-operative pain = details: third molar surgery; cited from earlier work

Sequence of μ-opiate receptor (P35372 whole entry, species assumed): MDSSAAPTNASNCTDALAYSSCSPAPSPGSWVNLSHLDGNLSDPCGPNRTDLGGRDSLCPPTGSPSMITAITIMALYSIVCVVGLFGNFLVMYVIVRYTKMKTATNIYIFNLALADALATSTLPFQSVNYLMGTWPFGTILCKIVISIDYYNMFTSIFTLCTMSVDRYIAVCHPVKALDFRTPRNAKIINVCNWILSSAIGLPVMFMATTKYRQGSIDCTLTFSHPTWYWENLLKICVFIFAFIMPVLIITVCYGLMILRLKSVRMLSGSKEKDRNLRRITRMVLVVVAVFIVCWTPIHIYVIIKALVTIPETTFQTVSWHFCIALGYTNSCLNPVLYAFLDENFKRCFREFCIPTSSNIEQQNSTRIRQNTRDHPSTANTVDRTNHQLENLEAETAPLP

Structure (SMILES): COc1cccc(C2(O)CCCCC2CN(C)C)c1 (racemic) [tramadol, (+/−)-trans (RR,SS)-2-[(di-methylamino)methyl]-1-(3-methoxyphenyl)cyclohexanol]
- accumulation during multiple dose treatment ([1]; multiple dose treatment with tramadol): approximately 2 fold
- bioavailability ([1]; oral administration): 68%
- time to peak serum concentrations ([1]; oral administration): ≤ 2 h
- half-life ([1]; single oral dose of 100 mg tramadol): 5.1 h
- affinity for opiate receptors, fold less than codeine (μ-opiate receptor; relative to codeine): 10 fold
- affinity for opiate receptors, fold less than d-propoxyphene (μ-opiate receptor; relative to d-propoxyphene): 100 fold
- affinity for opiate receptors relative to dextromethorphan (μ-opiate receptor; relative to dextromethorphan): equivalent
- affinity for opiate receptors, fold less than morphine (μ-opiate receptor; relative to morphine): 6,000 fold
- duration of the analgesic effect (pain [2]): about 6 hours
- reduction in pain [3]: 30-40%

Structure (SMILES): C[C@@H]1CCC[C@](CN)(CC(=O)O)C1 [(1R,3R)3-MeGBP]
- IC50 [4]: > 10000 nM
- reversal of neuropathy-induced allodynia [5]: ineffective

Structure (SMILES): C[C@@H]1CCC[C@@](CN)(CC(=O)O)C1 [(1S,3R)3-MeGBP]
- IC50 [4]: 42 nM
- reversal of neuropathy-induced allodynia [5]: effectively reversed

Structure (SMILES): NCC1(CC(=O)O)CCCCC1 [Gabapentin]
- Pain Relief (percent of reduction in pain) Diabetic Neuropathy (Diabetic Neuropathy [6]): <50%
- Pain Relief (percent of reduction in pain) Fibromyalgia (Fibromyalgia [7]): <50%
- steady-state predose (Cmin) concentration in cerebrospinal fluid as share of plasma concentration [8]: approximately 20%

Structure (SMILES): O=S(=O)([O-])[O-].[Mg+2] [Magnesium (present as magnesium sulfate)]
- Pain Relief (percent of reduction in pain) Fibromyalgia (Fibromyalgia [9]): <10%
- pain scores compared with placebo (postherpetic neuralgia [10]; 30 mg kg-1 i.v., at 20 and 30 min (P=0.016), not at 10 min): significantly lower
- safety, tolerability and efficacy (postherpetic neuralgia [10]; i.v., postherpetic neuralgia): safe, well-tolerated and effective
- Pain Relief (percent of reduction in pain) Diabetic Neuropathy (Diabetic Neuropathy [11]): <10%

Structure (SMILES): CN(C)C[C@H]1CCCC[C@]1(O)c1cccc(O)c1 [O-desmethyltramadol (M1), O-desmethyltramadol]
- analgesic potency relative to parent drug (pain [12]): at least twice the analgesic potency of the parent drug

Structure (SMILES): COc1cccc(C2(O)CCCCC2CN(C)C)c1 (stereo not drawn) [Tramadol Hydrochloride]
- Pain Relief (percent of reduction in pain) Diabetic Neuropathy (Diabetic Neuropathy [6]): <35%
- Pain Relief (percent of reduction in pain) Fibromyalgia (Fibromyalgia [7]): <30%
- Pain Relief (percent of reduction in pain) Fibromyalgia (Fibromyalgia [9]): <10%
- Pain Relief (percent of reduction in pain) Diabetic Neuropathy (Diabetic Neuropathy [11]): <10%

Structure (SMILES): CN(C)CCC=C1c2ccccc2CCc2ccccc21 [amitriptyline]
- patients with superior relief compared with placebo (central poststroke pain): 67%
- share of patients with good or moderate response (postherpetic neuralgia [13]): about two-thirds
- share of patients with good or moderate response [14]: three-quarters

Structure (SMILES): COc1cc(CNC(=O)CCCCC=CC(C)C)ccc1O [capsaicin, 8-methyl-N-vanillyl-6-nonenamide]
- time to distribution to brain, spinal cord, liver and blood [15]: ≤ 20 min

Structure (SMILES): CCN(CC)C(=O)C1(c2ccccc2)CC1CN.Cl (stereo not drawn) [milnacipran, 1-phenyl-1-diethyl-aminocarbonyl-2-aminomethyl-cyclopropane (Z) hydrochloride]
- affinity for receptors [16]: no affinity
- adverse event: constipation ([17]; 100 mg/day twice daily): 10%
- adverse event: headache ([17]; 100 mg/day twice daily): 9%
- adverse event: abdominal pain ([17]; 200 mg/day twice daily): 7%
- adverse event: headache ([17]; 200 mg/day twice daily): 8%
- adverse event: nausea and vomiting ([17]; 200 mg/day twice daily): 7%
- effect on uptake of dopamine (uptake of dopamine): does not affect

Structure (SMILES): CC(C)C[C@H](CN)CC(=O)O [pregabalin]
- patients discontinued prematurely due to adverse reactions ([18]; 150-600 mg/day): 19%
- withdrawal due to fatigue, headache, balance disorder, and weight increased (each) [18]: approximately 1%
- patients discontinued prematurely due to adverse reactions [19]: 9%
- withdrawal due to asthenia, confusion, and peripheral edema (each) [19]: approximately 1%

Structure (SMILES): N[C@@H](Cc1c[nH]c2ccccc12)C(=O)O [tryptophan]
- effect on post-operative pain or consumption of other analgesics (post-operative pain): no effect
